These results are taken from patent US20070243221A1, “ANTI-WRINKLE COMPOSITION” (L'OREAL, priority 2006, published 2007).

This assay has as its system normal human fibroblasts. Put plainly: Dermo-decontracting effect: spontaneous contraction of equivalent dermis (collagen matrix seeded with normal human fibroblasts). Format: cell-based. Conditions: on average over the duration of the experiment (0, 4, 8 and 24 hours), equivalent dermis surface area. The source says: The principle of this test consists in studying the effect of the test product on a model of equivalent dermis consisting of a collagen matrix seeded with normal human fibroblasts.
These conditions are intended to mimic in vitro the dermal contractile phenomena that take place during facial movements. The reason for this is that, under these conditions, the cells spontaneously exert tensile forces that induce a shrinkage of the collagen gel. […] Measurement of this area makes it possible to evaluate the relaxation effects of the substances placed in contact beforehand with the equivalent dermis.
Two series of attached equivalent dermides containing normal human fibroblasts are prepared: a control series without any treatment, and a series treated with the test compound (1 μM). The experiment is repeated three times.
The dermal equivalents are prepared as described in Asselineau et al., Exp. Cell. Res., 1985, 159, 536-539; Models in dermatology, 1987, vol. 3, pp. 1-7, in the following proportions:
The treated equivalent dermis differs from the control equivalent dermis in that 1 μM of the test compound has been added thereto. […]
To do this, a digital image is acquired for each treated or untreated equivalent dermis using a camera (CCD camera—Iris Sony DXC-107P) and the surface area is then calculated on each image by means of an image analysis system (Zeiss Axiovision 3.0). […]

As to `c1ccc(CCCNC2CCN(CCc3ccccc3)CC2)cc1` [compound 1, 1-(2-phenylethyl)-4-[N-(3-phenylpropyl)]aminopiperidine], for the setting “tested at 1 μM”, the “reduces the contraction of fibroblasts, compared with the control” value is recorded as 21%.
As for `CC(NC1CCN(CCc2ccccc2)CC1)c1ccccc1` (centres unmarked) [compound 5, 1-(2-phenylethyl)-4-[N-(1-phenylethyl)]aminopiperidine], the “reduces the contraction of fibroblasts, compared with the control” value (tested at 10 μM) was determined as 40%.
